By IC50 is commonly meant the concentration that gives 50% inhibition.

Two molecules from ChEMBL document CHEMBL5252643, “Jozibrevine D from Ancistrocladus ileboensis, the fifth alkaloid in a series of six possible atropo-diastereomeric naphthylisoquinoline dimers, showing antiparasitic and antileukemic activities” (Bioorg Med Chem Lett, 2023) can be followed below.

One data set concerns CCRF-CEM. Briefly: Cytotoxicity against human CCRF-CEM cells. The format is functional, cell-based.
A short description of data set [1]: Selectivity index, ratio of IC50 for rat L6 cells to IC50 for Plasmodium falciparum NF54. The format is toxicity. Conditions: L6 cells versus Plasmodium falciparum NF54, read-out: Ratio IC50.
The next data set deals with Leishmania donovani. Briefly: Antileishmanial activity against Leishmania donovani. The format is functional, organism-based.
Data set [2] relates to Trypanosoma brucei rhodesiense. The data set can be described thus: Antitrypanosomal activity against Trypanosoma brucei rhodesiense. The format is functional, organism-based.
A short description of data set [3]: Selectivity ratio of IC50 for human CEM/ADR5000 cells to IC50 for human CCRF-CEM cells. The format is functional.
The subject of the next data set is Plasmodium falciparum. The data set can be described thus: Antiplasmodial activity against Plasmodium falciparum NF54. The format is functional, organism-based.
Another data set relates to Trypanosoma cruzi. Briefly: Antitrypanosomal activity against Trypanosoma cruzi. The format is functional, organism-based.
A short description of data set [4]: Cytotoxicity against rat L6 cells assessed as reduction in cell viability by resazurin dye based assay. The format is toxicity. (In general: The colour change of resazurin is a common sign of viable cells or microbes.)
A further data set has as its system ADR5000 cell line. Briefly: Cytotoxicity against multidrug resistant human CEM/ADR5000 cells. The format is functional, cell-based.

Take `COc1cccc2c(-c3ccc4c(c3O)[C@@H](C)N[C@H](C)C4)c(C)c(-c3c(C)c(-c4ccc5c(c4O)[C@@H](C)N[C@H](C)C5)c4cccc(OC)c4c3O)c(O)c12` (stereo in doubt; 4e): the IC50 in the data set on CCRF-CEM was found to be 11.5 µM; in the data set with Leishmania donovani it was 105 µM; in [2], 0.527 µM; in the data set on Plasmodium falciparum, 0.137 µM; with Trypanosoma cruzi, 22.2 µM; in data set [4], 6.22 µM. In addition, the IC50 in the data set on ADR5000 cell line turned out to be 16.6 µM. Also, in data set [1], the selectivity ratio came out at 45.4. Moreover, in data set [3], the “Ratio IC50” value worked out at 1.45.
As to `COc1cccc2c(-c3ccc4c(c3O)[C@@H](C)N[C@H](C)C4)c(C)c(-c3c(C)c(-c4ccc5c(c4O)[C@@H](C)N[C@H](C)C5)c4cccc(OC)c4c3O)c(O)c12` (stereo in doubt; 4d), the IC50 in the data set on CCRF-CEM was determined as 5.35 µM; in the data set on ADR5000 cell line it was 7.59 µM. Besides, in data set [3], the “Ratio IC50” value came to 1.42.
